Test results as given in patent US4204038A, “Process for preparing antibiotics MA 144-M1 and MA 144-M2” (Zaidan Hojin Biseibutsu Kagaku Kenkyu Kai, priority 1976, dated 1980).
≈ marks a conversion by molar mass, not a printed value.

Experiments:
[1] = Basicity and lipophilicity
Sarcina lutea ATCC 341 = experiment: Minimum inhibitory concentration by the broth dilution method; assay type: cell-based; conditions: Micrococcus luteus, ATCC341, read-out: Minimum inhibitory concentration (MIC)
Excerpt: (§1) (1) MA 144-M1 and MA 144-M2 have antimicrobial activity against various kinds of microorganisms.

Bac. cereus ATCC 9634 = experiment: as above; assay type: cell-based; conditions: Bacillus cereus, ATCC9634, read-out: Minimum inhibitory concentration (MIC)
Excerpt: as §1

Mic. flavus = experiment: as above; assay type: cell-based; conditions: Micrococcus flavus, read-out: Minimum inhibitory concentration (MIC)
Excerpt: as §1

Bac. subtilis ATCC 6633 = experiment: as above; assay type: cell-based; conditions: Bacillus subtilis, ATCC6633, read-out: Minimum inhibitory concentration (MIC)
Excerpt: as §1

Can. albicans IAM 4905 = experiment: as above; assay type: cell-based; conditions: Candida albicans, IAM4905, read-out: Minimum inhibitory concentration (MIC)
Excerpt: as §1

[2] = test system: Ps. fluorescens NIH JB-254; experiment: as above; assay type: cell-based; conditions: Pseudomonas fluorescens, NIHJB254, read-out: Minimum inhibitory concentration (MIC)
Excerpt: as §1

Staph. aureus Smith = experiment: as above; assay type: cell-based; conditions: Staphylococcus aureus, read-out: Minimum inhibitory concentration (MIC)
Excerpt: as §1

[3] = test system: Bac. megaterium NRRL B-938; experiment: as above; assay type: cell-based; conditions: Priestia megaterium, NRRLB938, read-out: Minimum inhibitory concentration (MIC)
Excerpt: as §1

Staph. aureus FDA 209P = experiment: as above; assay type: cell-based; conditions: Staphylococcus aureus, FDA209P, read-out: Minimum inhibitory concentration (MIC)
Excerpt: as §1

Proteus morganii = experiment: as above; assay type: cell-based; conditions: Morganella morganii, read-out: Minimum inhibitory concentration (MIC)
Excerpt: as §1

Cory. bovis = experiment: as above; assay type: cell-based; conditions: Corynebacterium bovis, read-out: Minimum inhibitory concentration (MIC)
Excerpt: as §1

Can. tropicalis IAM 4942 = experiment: as above; assay type: cell-based; conditions: Candida tropicalis, IAM4942, read-out: Minimum inhibitory concentration (MIC)
Excerpt: as §1

Strept. pyogenes NY 5 = experiment: as above; assay type: cell-based; conditions: Streptococcus pyogenes, NY5, read-out: Minimum inhibitory concentration (MIC)
Excerpt: as §1

[4] = test system: Mycobact. smegmatis ATCC 607; experiment: as above; assay type: cell-based; conditions: read-out: Minimum inhibitory concentration (MIC)
Excerpt: as §1

Sarcoma 180 = experiment: Therapeutic effectiveness on Sarcoma 180 solid tumor; assay type: in vivo, dd mice; conditions: intraperitoneally, day 1 to day 10; for Weight of tumor: control 1.68
Description: (c) Therapeutic effectiveness on Sarcoma 180 solid tumor
dd mice were inoculated with 2×10^6 cells of Sarcoma 180, and drug was administered intraperitoneally from day 1 to day 10.

L1210 cells [5] = experiment: RNA synthesis in cultured L1210 cells; assay type: cell-based, mice
Description: (§2) In this experiment, L1210 cells were inoculated in RPMI 1640 medium (Nissui, Roswell Park Memorial Institute 1640) containing 10% calf serum and cultivated at 37° C. for 3 days in a CO2 incubator, and MA 144-M1, MA 144-M2 and ^14 C-precursor were added at various concentrations. Effects on the synthesis of protein, RNA and DNA were indicated by the 50% inhibition concentration (μg./ml.) as shown in the following table.

Toxicity = conditions: in words
L1210 = experiment: Therapeutic effectiveness on L1210-bearing mice; assay type: in vivo; conditions: intraperitoneally, day 0 to day 10, CDF1-L1210
Description: (a) Therapeutic effectiveness on L1210-bearing mice
Drug was administered intraperitoneally

Antitumor activity = assay type: in vivo; conditions: in words
L1210 cells [6] = experiment: Cytotoxicity: growth of cultured L1210 cells; assay type: cell-based, mice
P388 = experiment: Therapeutic effectiveness on P388-bearing mice; assay type: in vivo; conditions: intraperitoneally, day 1 to day 9, CDF1-P388
Description: (b) Therapeutic effectiveness on P388-bearing mice
Drug was administered intraperitonally

gram-positive bacteria = experiment: Antimicrobial activity against gram-positive bacteria; assay type: cell-based; conditions: in words
Excerpt: as §1

in vivo [7] = conditions: Mouse
in vivo [8] = conditions: Rat
L1210 cells [9] = experiment: DNA synthesis in cultured L1210 cells; assay type: cell-based, mice; conditions: Mus musculus, L1210, read-out: ID50, DNA synthesis
Description: as §2

L1210 cells [10] = experiment: Protein synthesis in cultured L1210 cells; assay type: cell-based, mice; conditions: Mus musculus, L1210, read-out: % inhibition, Protein synthesis
Description: as §2

In the case of `CCC1(O)CC(OC2CC(N(C)C)C(OC3CC(O)C(OC4CCC(O)C(C)O4)C(C)O3)C(C)O2)c2c(cc3c(c2O)C(=O)c2c(O)cccc2C3=O)C1C(=O)OC` (centres unmarked) [MA 144-M1], the basicity [1] is reported as “Weakly basic”, the lipophilicity [1] is reported as “lipophilic” and the MIC (Sarcina lutea ATCC 341) is reported as 0.05 mg/L (≈ 0.0614 µM). It also gave an MIC (Bac. cereus ATCC 9634) of 0.78 mg/L (≈ 0.958 µM), an MIC (Mic. flavus) of 0.2 mg/L (≈ 0.246 µM) and an MIC (Bac. subtilis ATCC 6633) of 0.4 mg/L (≈ 0.491 µM). For the same molecule, the MIC (Can. albicans IAM 4905) was 100 mg/L (≈ 123 µM), the MIC [2] was over 100 mg/L and the MIC (Staph. aureus Smith) was 0.2 mg/L (≈ 0.246 µM). The MIC [3] was 3.1 mg/L (≈ 3.81 µM), the MIC (Staph. aureus FDA 209P) was 3.1 mg/L (≈ 3.81 µM) and the MIC (Proteus morganii) was over 100 mg/L. The MIC (Cory. bovis) was 0.4 mg/L (≈ 0.491 µM), the MIC (Can. tropicalis IAM 4942) was over 100 mg/L and the MIC (Strept. pyogenes NY 5) was 1.25 mg/L (≈ 1.54 µM). The MIC [4] was 2.5 mg/L (≈ 3.07 µM), the “% Inhibition of tumor growth” value (Sarcoma 180; 0.3 mg/kg/day) was 25.5% and the Weight of tumor (Sarcoma 180; 0.3 mg/kg/day) was 1.25 g. For the same molecule, the “% Inhibition of tumor growth” value (Sarcoma 180; 0.6 mg/kg/day) was 53.7%, the Weight of tumor (Sarcoma 180; 0.6 mg/kg/day) was 0.78 g and the “% Inhibition of tumor growth” value (Sarcoma 180; 1.25 mg/kg/day) was 51.9%. The Weight of tumor (Sarcoma 180; 1.25 mg/kg/day) was 0.81 g, the “% Inhibition of tumor growth” value (Sarcoma 180; 2.5 mg/kg/day) was 61.3% and the Weight of tumor (Sarcoma 180; 2.5 mg/kg/day) was 0.65 g. For the same molecule, the “% Inhibition of tumor growth” value (Sarcoma 180; 5 mg/kg/day) was 77.4%, the Weight of tumor (Sarcoma 180; 5 mg/kg/day) was 0.38 g and the “inhibition of RNA synthesis” value (L1210 cells [5]; L1210 cells, in words) was “completely inhibited RNA synthesis”. For the same molecule, the IC50 (L1210 cells [5]; Mus musculus, L1210, read-out: ID50, RNA synthesis) was 0.7 mg/L (≈ 0.86 µM), the toxicity (Toxicity) was “low toxicity” and the “Prolongation of the survival time” value (L1210; 0.156 mg/kg/day) was 110%. The “Prolongation of the survival time” value (L1210; 0.313 mg/kg/day) was 110%, the “Prolongation of the survival time” value (L1210; 0.625 mg/kg/day) was 123% and the “Prolongation of the survival time” value (L1210; 1.25 mg/kg/day) was 137%. For the same molecule, the “Prolongation of the survival time” value (L1210; 2.5 mg/kg/day) was 192%, the “Prolongation of the survival time” value (L1210; 5 mg/kg/day) was 200% and the “Prolongation of the survival time” value (L1210; 10 mg/kg/day) was 90%. The antitumor activity (Antitumor activity) was “marked antitumor activity”, the IC50 (L1210 cells [6]; Mus musculus, L1210, 72 h, read-out: ID50, Growth) was 0.12 mg/L (≈ 0.147 µM) and the “inhibition of the growth of cultured L1210 cells” value (L1210 cells [6]; at the low concentration, in words) was “inhibited markedly”. The “Prolongation of the survival time” value (P388; 0.313 mg/kg/day) was 110%, the “Prolongation of the survival time” value (P388; 0.625 mg/kg/day) was 135% and the “Prolongation of the survival time” value (P388; 1.25 mg/kg/day) was 149%. The “Prolongation of the survival time” value (P388; 2.5 mg/kg/day) was 184%, the “Prolongation of the survival time” value (P388; 5 mg/kg/day) was 100% and the “antimicrobial activity against gram-positive bacteria” value (gram-positive bacteria) was “show antimicrobial activity against gram-positive bacteria”. The LD50 (in vivo [7]; ip) was 35 mg/kg, the LD50 (in vivo [7]; iv) was 30 to 35 mg/kg and the LD50 (in vivo [8]; ip) was 25 to 30 mg/kg. The LD50 (in vivo [8]; iv) was 25 to 30 mg/kg, the IC50 (L1210 cells [9]) was 1.7 mg/L (≈ 2.09 µM) and the “solubility: slightly soluble in” value (Solubility) was “slightly soluble in water, diethyl ether and n-hexane”. The “solubility: soluble in” value (Solubility) was “soluble in acidic water, dimethyl sulfoxide, methylcellosolve, methanol, ethanol, ethyl acetate, acetone, chloroform, benzene, toluene” and the inhibition at 10 µg/mL (L1210 cells [10]) was 10%.
